Test results taken from patent US7138376B2, “Methods and compositions for treating hepatitis C virus using 4'-modified nucleosides” (Idenix Pharmaceuticals, Inc., priority 2001, dated 2006).

What was measured:
MDBK = experiment: Cytotoxicity assay (CC50, sulforhodamine B staining); format: cell-based; conditions: MDBK cells; 4 days incubation; concentration reducing cell number by 50%; preliminary results
Experimental: The test compounds were dissolved in DMSO at an initial concentration of 200 μM and then were serially diluted in culture medium.
Cells are seeded at a rate of between 5×10^3 and 5×10^4/well into 96-well plates in growth medium overnight at 37° C. in a humidified CO2 (5%) atmosphere. New growth medium containing serial dilutions of the drugs is then added. After incubation for 4 days, cultures are fixed in 50% TCA and stained with sulforhodamineB. The optical density was read at 550 nm. The cytotoxic concentration was expressed as the concentration required to reduce the cell number by 50% (CC50).

HCV = conditions: cited from earlier work
HCV protease = conditions: SDS-PAGE and autoradiography assay; cited from earlier work

Row | SMILES | CC50 (MDBK) | melting point | other results
1 | C[C@]1(CO)O[C@@H](n2ccc(=S)[nH]c2=O)[C@H](O)[C@@H]1O [β-D-4′-CH3-ribo-4-thioU, 1-(4-C-methyl-β-D-ribofuranosyl)4-thio-uracil] | > 250 µM | 65 to 70 °C (dec.) | 
2 | NC(=O)c1ncn([C@@H]2O[C@H](CO)[C@@H](O)[C@H]2O)n1 [Ribavirin, 1-β-D-ribofuranosyl-1-1,2,4-triazole-3-carboxamide] |  |  | effect on serum levels of HCV-RNA (HCV; patients, sole treatment): does not lower serum levels of HCV-RNA; patients in whom serum amino transferase levels are reduced to normal (HCV; ribavirin alone): 40%
3 | C[C@]1(CO)O[C@@H](n2cc(F)c(=O)[nH]c2=O)[C@H](O)[C@@H]1O [β-D-4′-CH3-ribo-5-fluoroU] | > 167 µM |  | 
4 | CCCC(=O)c1cc2c(c(O)c1C)C(=O)C(=O)c1c(O)cccc1-2 [Sch 68631] |  |  | activity against HCV protease (HCV protease): micromolar activity
5 | C[C@]1(CO)O[C@@H](n2ccc(N)nc2=O)[C@H](O)[C@@H]1O [β-D-4′-CH3-riboC, 1-(4-C-methyl-β-D-ribofuranosyl)cytosine] | > 250 µM |  | 
6 | C[C@]1(CO)O[C@@H](n2cnc3c(N)ncnc32)[C@H](O)[C@@H]1O [β-D-4′-CH3-riboA, 9-(4-C-methyl-β-D-ribofuranosyl) adenine] | > 250 µM | 96 to 97 °C (dec.) | 
7 | Cc1cn([C@@H]2O[C@](C)(CO)[C@@H](O)[C@H]2O)c(=O)[nH]c1=O [β-D-4′-CH3-riboT, 1-(4-C-methyl-β-D-ribofuranosyl)thymine] | > 250 µM | 258 to 260 °C (dec.) | 
8 | C[C@]1(CO)O[C@@H](n2cnc3c(=O)[nH]c(N)nc32)[C@H](O)[C@@H]1O [β-D-4′-CH3-riboG, 9-(4-C-methyl-β-D-ribofuranosyl) guanine] | > 250 µM |  | 
